Source: publication PMC12198282, “Application of a high-density microelectrode array assay using a 3D human iPSC-derived brain microphysiological system model for in vitro neurotoxicity screening of environmental compounds” (Archives of Toxicology, 2025)
“Also recorded” adds a separate entry of the source. Like-named read-outs stand apart in the source and are kept apart here.

How the values were obtained:
2D rat cortical cultures [1] = details: cited from earlier work; for AC50: read-out: ac50 CCTE_Shafer_MEA_dev_AB, rNFA mc5; for Cytotoxicity in the resazurin assay of the rNFA (in words): ref Brown et al. [2016], Carstens et al. [2022], Frank et al. [2017b], Shafer et al. [2019], ToxCast invitrodb (v4.2)
2D rat cortical cultures [2] = details: cited from earlier work; for hitc CCTE_Shafer_MEA_dev_active_electrodes_number / hitc CCTE_Shafer_MEA_dev_burst_duration_mean / hitc CCTE_Shafer_MEA_dev_burst_rate / hitc CCTE_Shafer_MEA_dev_bursting_electrodes_number / hitc CCTE_Shafer_MEA_dev_correlation_coefficient_mean / hitc CCTE_Shafer_MEA_dev_firing_rate_mean / hitc CCTE_Shafer_MEA_dev_inter_network_spike_interval_mean / hitc CCTE_Shafer_MEA_dev_interburst_interval_mean / hitc CCTE_Shafer_MEA_dev_mutual_information_norm / hitc CCTE_Shafer_MEA_dev_network_spike_duration_std / hitc CCTE_Shafer_MEA_dev_network_spike_number / hitc CCTE_Shafer_MEA_dev_network_spike_peak / hitc CCTE_Shafer_MEA_dev_per_burst_interspike_interval / hitc CCTE_Shafer_MEA_dev_per_burst_spike_percent / hitc CCTE_Shafer_MEA_dev_per_network_spike_spike_number_mean / hitc CCTE_Shafer_MEA_dev_per_network_spike_spike_percent / hitc CCTE_Shafer_MEA_dev_spike_duration_mean: rNFA mc5 hit call; for hitc CCTE_Shafer_MEA_dev_burst_duration_mean: aenm burst_duration_mean; for hitc CCTE_Shafer_MEA_dev_burst_rate: aenm burst_rate; for hitc CCTE_Shafer_MEA_dev_firing_rate_mean: aenm firing_rate_mean; for hitc CCTE_Shafer_MEA_dev_inter_network_spike_interval_mean: aenm inter_network_spike_interval_mean; for hitc CCTE_Shafer_MEA_dev_interburst_interval_mean: aenm interburst_interval_mean; for hitc CCTE_Shafer_MEA_dev_network_spike_duration_std: aenm network_spike_duration_std; for hitc CCTE_Shafer_MEA_dev_network_spike_number: aenm network_spike_number; for hitc CCTE_Shafer_MEA_dev_per_burst_interspike_interval: aenm per_burst_interspike_interval; for AC50: rNFA mc5
2D rat cortical cultures [3] = details: cited from earlier work; for AC50: read-out: ac50 CCTE_Shafer_MEA_dev_LDH, rNFA mc5
BrainSpheres = assay: Cytotoxicity evaluation, resazurin assay (BrainSphere.Cyto); type: cell-based, human; details: for AC50: read-out: ac50 BrainSphere.Cyto; for ACC BrainSphere.Cyto: tcplfit2 output ACC, activity cutoff in Supplemental Table 1; as to hitc BrainSphere.Cyto: key: 1 (active); 0 (inactive)
Procedure: For the resazurin assay, BrainSpheres were cultured for 7 weeks in non-treated 6-well plates under gyratory shaking. Subsequently, the cells were exposed in the same manner as the HD-MEA plates. This assay was used to determine cell viability after exposure for 13 days to the different compounds. After exposure, resazurin diluted in PBS was added directly to the 6-well plates to a final concentration of 0.1 mg/ml. The plates were then put in an incubator for 3 h at 37 °C, 5% CO2. Then, 100 µl of the media was collected and transferred in a 96-well plate for fluorescence analysis, which was done at ex:530 nm/em:590 nm in a multi-well fluorometric reader CytoFluor series 4000 (PerSeptive Biosystems, Inc).
Ten metrics were measured to evaluate changes in neural activity in the BrainSphere MEA assay (Table 3). Considering the complexity of the data which includes seven recording days for each single ROI in a well, an area under the curve (AUC) metric was used to reduce activity across time as described in previous publications (Brown et al. [2016]; Frank et al. [2017b]; Shafer et al. [2019]). […] For concentration–response modeling, the mean AUC values across all the BrainSpheres per well (technical replicates) was computed for each endpoint, such that each concentration included biological replicates from at least three separate wells on three separate plates, representing each individual experiment. The mean AUC values were used for concentration–response modeling using the R package tcplfit2 (version 0.1.6) (Sheffield et al. [2022]). Data were normalized as a percent of vehicle control wells by plate using the equation: resp.pc=rval-bval/bval×100 where resp.pc is the percent of control value, rval is the response value, and bval is the baseline value (defined as the mean of the vehicle control and the lowest tested concentration). […] The activity cutoff was defined as 3 times the median absolute deviation (bmad) of baseline values. A curve was defined as ‘active’ if the continuous hit call was ≥ 0.9. See Supplemental Table 1 for the bmad, activity cutoff threshold, SD, and benchmark response for each endpoint in the BrainSphere MEA. Potency was defined as the concentration at 50% maximal activity (AC50 log10 µM).

[4] = rNFA mc5 hit call, cytotoxicity AlamarBlue
[5] = aenm bursting_electrodes_number
[6] = aenm correlation_coefficient_mean
[7] = aenm per_network_spike_spike_number_mean
[8] = aenm per_network_spike_spike_percent
[9] = ref Brown et al. [2016], Carstens et al. [2022], Frank et al. [2017b], Shafer et al. [2019], ToxCast invitrodb (v4.2)
[10] = rNFA mc5 hit call, cytotoxicity LDH
[11] = Homo sapiens, 312 h, resazurin, day 13, Supplement 3 prints it also for curves with hit call 0
[12] = tcplfit2 BMD at benchmark response (1.349*SD of baseline controls)
[13] = aenm active_electrodes_number, read-out: ac50 CCTE_Shafer_MEA_dev_active_electrodes_number
[14] = aenm bursting_electrodes_number, read-out: ac50 CCTE_Shafer_MEA_dev_bursting_electrodes_number
[15] = resazurin, after 13 days of exposure
For hitc CCTE Shafer MEA dev active electrodes number in this document: key: 1 (active); 0 (inactive).
For hitc CCTE Shafer MEA dev burst duration mean in this document: key: 1 (active); 0 (inactive).
For hitc CCTE Shafer MEA dev burst rate in this document: key: 1 (active); 0 (inactive).
For hitc CCTE Shafer MEA dev bursting electrodes number in this document: key: 1 (active); 0 (inactive).
For hitc CCTE Shafer MEA dev correlation coefficient mean in this document: key: 1 (active); 0 (inactive).
For hitc CCTE Shafer MEA dev firing rate mean in this document: key: 1 (active); 0 (inactive).
For hitc CCTE Shafer MEA dev inter network spike interval mean in this document: key: 1 (active); 0 (inactive).
For hitc CCTE Shafer MEA dev interburst interval mean in this document: key: 1 (active); 0 (inactive).
For hitc CCTE Shafer MEA dev mutual information norm in this document: key: 1 (active); 0 (inactive).
For hitc CCTE Shafer MEA dev network spike duration std in this document: key: 1 (active); 0 (inactive).
For hitc CCTE Shafer MEA dev network spike number in this document: key: 1 (active); 0 (inactive).
For hitc CCTE Shafer MEA dev network spike peak in this document: key: 1 (active); 0 (inactive).
For hitc CCTE Shafer MEA dev per burst interspike interval in this document: key: 1 (active); 0 (inactive).
For hitc CCTE Shafer MEA dev per burst spike percent in this document: key: 1 (active); 0 (inactive).
For hitc CCTE Shafer MEA dev per network spike spike number mean in this document: key: 1 (active); 0 (inactive).
For hitc CCTE Shafer MEA dev per network spike spike percent in this document: key: 1 (active); 0 (inactive).
For hitc CCTE Shafer MEA dev spike duration mean in this document: key: 1 (active); 0 (inactive).

| Compound | hitc CCTE_Shafer_MEA_dev_AB (2D rat cortical cultures [1]; [4]) | hitc CCTE_Shafer_MEA_dev_active_electrodes_number (2D rat cortical cultures [2]; aenm active_electrodes_number) | hitc CCTE_Shafer_MEA_dev_burst_duration_mean (2D rat cortical cultures [2]) | hitc CCTE_Shafer_MEA_dev_burst_rate (2D rat cortical cultures [2]) | hitc CCTE_Shafer_MEA_dev_bursting_electrodes_number (2D rat cortical cultures [2]; [5]) | hitc CCTE_Shafer_MEA_dev_correlation_coefficient_mean (2D rat cortical cultures [2]; [6]) | hitc CCTE_Shafer_MEA_dev_firing_rate_mean (2D rat cortical cultures [2]) | hitc CCTE_Shafer_MEA_dev_inter_network_spike_interval_mean (2D rat cortical cultures [2]) | hitc CCTE_Shafer_MEA_dev_interburst_interval_mean (2D rat cortical cultures [2]) | hitc CCTE_Shafer_MEA_dev_mutual_information_norm (2D rat cortical cultures [2]; aenm mutual_information_norm) | hitc CCTE_Shafer_MEA_dev_network_spike_duration_std (2D rat cortical cultures [2]) | hitc CCTE_Shafer_MEA_dev_network_spike_number (2D rat cortical cultures [2]) | hitc CCTE_Shafer_MEA_dev_network_spike_peak (2D rat cortical cultures [2]; aenm network_spike_peak) | hitc CCTE_Shafer_MEA_dev_per_burst_interspike_interval (2D rat cortical cultures [2]) | hitc CCTE_Shafer_MEA_dev_per_burst_spike_percent (2D rat cortical cultures [2]; aenm per_burst_spike_percent) | hitc CCTE_Shafer_MEA_dev_per_network_spike_spike_number_mean (2D rat cortical cultures [2]; [7]) | hitc CCTE_Shafer_MEA_dev_per_network_spike_spike_percent (2D rat cortical cultures [2]; [8]) | hitc CCTE_Shafer_MEA_dev_spike_duration_mean (2D rat cortical cultures [2]; aenm spike_duration_mean) | hitc CCTE_Shafer_MEA_dev_LDH (2D rat cortical cultures [3]; [10]) | hitc BrainSphere.Cyto (BrainSpheres; resazurin, day 13, tcplfit2) | further results |
| --- | --- | --- | --- | --- | --- | --- | --- | --- | --- | --- | --- | --- | --- | --- | --- | --- | --- | --- | --- | --- | --- |
| CC(=O)Nc1ccc(O)cc1 [Acetaminophen] | 0 | 0 | 0 | 0 | 0 | 0 | 0 | 0 | 0 | 0 | 0 | 0 | 0 | 0 | 0 | 0 | 0 | 0 | 0 |  | Bioactivity in the rNFA (in words) (2D rat cortical cultures [2]; [9]): inactivity across all metrics in both models; Bioactivity in the rNFA (in words) (2D rat cortical cultures [2]; ref Brown et al. [2016], Carstens et al. [2022], Frank et al. [2017b], Shafer et al. [2019], ToxCast invitrodb (v4.2), listed as acetaminophen): inactive in both assays; also recorded: did not; AC50 (BrainSpheres; Homo sapiens, 312 h): 45 µM; BMD BrainSphere.Cyto (BrainSpheres; human): 174 µM; Cytotoxicity hit (BrainSpheres; human): 0; hitc BrainSphere.Cyto (BrainSpheres; human): 0 |
| CC1(C)S[C@@H]2[C@H](NC(=O)[C@H](N)c3ccc(O)cc3)C(=O)N2[C@H]1C(=O)O [Amoxicillin] | 0 | 0 | 0 | 0 | 0 | 0 | 0 | 0 | 0 | 0 | 0 | 0 | 0 | 0 | 0 | 0 | 0 | 0 | 0 | 0 | Bioactivity in the rNFA (in words) (2D rat cortical cultures [2]; [9]): negative in the rNFA; also recorded: inactive in the rNFA; also recorded: inactivity across all metrics in both models; AC50 (BrainSpheres; [11]): 45 µM; Cytotoxicity hit (BrainSpheres; human): 0; BMD BrainSphere.Cyto (BrainSpheres; [12]): 94 µM |
| Brc1ccc(Oc2ccc(Br)cc2Br)c(Br)c1 [BDE- 47] | 1 | 1 | 0 | 0 | 1 | 1 | 0 | 0 | 0 | 1 | 0 | 0 | 1 | 0 | 1 | 1 | 1 | 1 | 1 | 0 | AC50 (2D rat cortical cultures [1]; cytotoxicity AlamarBlue): 8.31 µM; Cytotoxicity in the resazurin assay of the rNFA (in words) (2D rat cortical cultures [1]): demonstrating cytotoxicity in the rNFA; AC50 (2D rat cortical cultures [2]; [13]): 10 µM; AC50 (2D rat cortical cultures [2]; [14]): 0.023 µM; AC50 (2D rat cortical cultures [2]; aenm correlation_coefficient_mean, read-out: ac50 CCTE_Shafer_MEA_dev_correlation_coefficient_mean): 4.26 µM; AC50 (2D rat cortical cultures [2]; aenm mutual_information_norm, read-out: ac50 CCTE_Shafer_MEA_dev_mutual_information_norm): 0.013 µM; AC50 (2D rat cortical cultures [2]; aenm network_spike_peak, read-out: ac50 CCTE_Shafer_MEA_dev_network_spike_peak): 10 µM; AC50 (2D rat cortical cultures [2]; aenm per_burst_spike_percent, read-out: ac50 CCTE_Shafer_MEA_dev_per_burst_spike_percent): 14.2 µM; AC50 (2D rat cortical cultures [2]; aenm per_network_spike_spike_number_mean, read-out: ac50 CCTE_Shafer_MEA_dev_per_network_spike_spike_number_mean): 4 µM; AC50 (2D rat cortical cultures [2]; aenm per_network_spike_spike_percent, read-out: ac50 CCTE_Shafer_MEA_dev_per_network_spike_spike_percent): 15.1 µM; AC50 (2D rat cortical cultures [2]; aenm spike_duration_mean, read-out: ac50 CCTE_Shafer_MEA_dev_spike_duration_mean): 15 µM; AC50 (2D rat cortical cultures [3]; cytotoxicity LDH): 12.3 µM; Cytotoxicity hit (BrainSpheres; [15]): 0; AC50 (BrainSpheres; resazurin, day 13, Supplement 3 prints it also for curves with hit call 0): 45 µM; BMD BrainSphere.Cyto (BrainSpheres; [12]): 79 µM; ACC BrainSphere.Cyto (BrainSpheres): 89 µM; Top BrainSphere.Cyto (BrainSpheres; top of winning model, response normalized as percent of vehicle control, negative = decrease): 4.9 |
| CC(C)(c1ccc(O)cc1)c1ccc(O)cc1 [Bisphenol A] | 0 | 1 | 0 | 0 | 1 | 0 | 0 | 0 | 0 | 0 | 0 | 0 | 0 | 0 | 0 | 0 | 0 | 0 | 0 | 0 | Number of active endpoints in the rNFA (2D rat cortical cultures [2]; of 17 MEA endpoints, ref Brown et al. [2016], Carstens et al. [2022], Frank et al. [2017b], Shafer et al. [2019], ToxCast invitrodb (v4.2)): two; AC50 (2D rat cortical cultures [2]; [13]): 15 µM; AC50 (2D rat cortical cultures [2]; [14]): 9.89 µM; AC50 (BrainSpheres; [11]): 6.8 µM; Cytotoxicity hit (BrainSpheres; [15]): 0; BMD BrainSphere.Cyto (BrainSpheres; [12]): 680 µM; ACC BrainSphere.Cyto (BrainSpheres): 11523 µM |
| ClC1=C(Cl)[C@]2(Cl)[C@@H]3[C@@H]4C[C@@H]([C@H]5O[C@@H]45)[C@@H]3[C@@]1(Cl)C2(Cl)Cl [Dieldrin] |  |  |  |  |  |  |  |  |  |  |  |  |  |  |  |  |  |  |  | 0 | hitc CCTE_Shafer_MEA_dev_AB (2D rat cortical cultures [1]): 1; AC50 (2D rat cortical cultures [1]; cytotoxicity AlamarBlue): 22.4 µM; Cytotoxicity in the resazurin assay of the rNFA (in words) (2D rat cortical cultures [1]): demonstrating cytotoxicity in the rNFA; hitc CCTE_Shafer_MEA_dev_LDH (2D rat cortical cultures [3]): 1; AC50 (2D rat cortical cultures [3]; cytotoxicity LDH): 11.3 µM; AC50 (BrainSpheres; [11]): 45 µM; Cytotoxicity hit (BrainSpheres; [15]): 0; BMD BrainSphere.Cyto (BrainSpheres; [12]): 509 µM |
